Data published in patent US7750005B2, “Substituted hexahydropyrazino [1,2-A] pyrimidine-4,7-dione derivatives, process for their preparation and their use as medicaments” (Sanofi-Aventis Deutschland GmbH, priority 2003, dated 2010).

Tested on: female NMRI mice
Test: Anorectic effect: cumulative condensed milk consumption after oral administration
Type: in vivo
Details: food withdrawn 24 hours, oral dose 50 mg/kg by gavage
Protocol: The anorectic effect was tested on female NMRI mice. After withdrawal of food for 24 hours, the test product was administered by gavage. The animals were housed singly with free access to drinking water and were offered condensed milk 30 minutes after administration of the product. The condensed milk consumption was determined every half hour for 7 hours, and the general wellbeing of the animals was observed. The measured milk consumption was compared with the vehicle-treated control animals.

## COc1ccc(Cl)cc1S(=O)(=O)N1CCC(=O)N2C(Cc3ccc(Cl)cc3)C(=O)N(C(C)C)CC21 (centres unmarked) [Example 2, 6-(4-Chlorobenzyl)-1-(5-chloro-2-methoxybenzenesulfonyl)-8-isopropylhexahydropyrazino[1,2-a]pyrimidine-4,7-dione]
Milk consumption over 7 hours
  Reduction in the cumulative milk consumption as % of the control: 11 % of the control
Over 7 hours, N=10, control animals 5.48 ml
  cumulative milk consumption of the treated animals: 10/4.90 ml
